Reference: patent US10011592B2, “Polycyclic inhibitor of anaplastic lymphoma kinase” (XUANZHU PHARMA CO., LTD., priority 2014, dated 2018)
Read-outs that look alike come from different tables or passages of the source.

Tests used:
NCI-H3122 = test: In vitro cell activity, NCI-H3122, MTS detection; format: cell-based; conditions: Homo sapiens, read-out: cell-inhibiting activity IC50, NCI-H3122
Method: (§1) Cells were digested with pancreatin. After centrifugation at 1000 rpm for 4 min, the supernatant was removed. […] The cell suspension (90 μL) was seeded to a 96-well plate to obtain a final cell density of 3000 cells/well; and then cultured in a 5% CO2, 37° C. incubator for 24 h.
(§2) Preparation of test compound solutions: a suitable amount of test compound (please see the following table for sample weight) was weighed, and diluted gradiently with DMSO to prepare a series of stock solutions of different concentrations (1000×test compound solution). Each of said stock solutions was further diluted by 100 folds with medium to obtain a 10×test compound solution.
(§3) Solvent control: 0.1% DMSO.
(§4) Cell control: cell seeding only, with no addition of compound.
(§5) Blank control: medium, for zero setting in an instrument.
(§6) (3.3) The 96-well plate was cultured in a 37° C., 5% CO2 incubator for 72h.
(§7) (1) The reagents in CellTiter 96®AQueous One Solution Cell Proliferation Assay (MTS) were placed at room temperature for 90 min.
(§8) (2) To each test well in the 96-well plate, 20 μL CellTiter 96® A Queous One Solution reagent was added.
(§9) (3) The 96-well plate was cultured in a 37° C., 5% CO2 incubator for 40 min.
(§10) (4) The results were read by Microplate Reader at 490 nm.
(§11) IC50 calculation: cell survival rate (%)=(ODsample value−ODblank value)/(ODmaximal value−ODblank value)×100, wherein Graph prisim software is used in curve fitting to get IC50 value.
(§12) ODmaximal value: cell control with the addition of solvent and no compound, ODblank value: blank control value.

Karpas-299 = test: In vitro cell activity, Karpas-299, MTS detection; format: cell-based; conditions: Homo sapiens, read-out: cell-inhibiting activity IC50, Karpas-299
Method: as §1, §2, §3, §4, §5, §6, §7, §8, §9, §10, §11, §12

NCI-H2228 = test: In vitro cell activity, NCI-H2228, CTG detection; format: cell-based; conditions: Homo sapiens, read-out: cell-inhibiting activity IC50, NCI-H2228
Method: Cells were digested with pancreatin. After centrifugation at 1000 rpm for 4 min, the supernatant was removed. […] The cell suspension (100 μL) was seeded to a 96-well plate to obtain a final cell density of 2000 cells/well.
(3.1) Preparation of test compound solutions: a suitable amount of test compound (please see the following table for sample weight) was weighed, and dissolved by adding a suitable amount of DMSO. The resultant mixture was mixed homogeneously, and diluted gradiently with DMSO to prepare a series of solutions of different concentrations, for later usage.
Solvent control: 0.5% DMSO.
as §4, §5
(3.3) The 96-well plate was cultured in a 37° C., 5% CO2 incubator for 96 h.
(1) 80 μL medium was removed from each well in the 96-well plate, and the plate was placed at room temperature for 30 min.
(2) 60 μL CellTiter-Glo® reagent was added to each test well in the 96-well plate.
(3) The 96-well plate was shaken for 2 min in dark to mix the mixture homogeneously in a microplate shaker, so as to lyse the cells.
(4) The 96-well plate was incubated in dark at room temperature for 10 min, to keep the light signal value stable.
(5) The results were read by Microplate Reader in luminescence mode.
IC50 calculation: cell inhibition rate (%)=(ODmaximal value−ODcompound)/(ODmaximal value−ODblank value)×100, wherein Graph prisim software is used in curve fitting to get IC50 value.
ODmaximal value: cell control with the addition of solvent and no compound, ODblank value: medium blank control.

ALK kinase [1] = target: T1, ALK kinase (Homo sapiens, UniProt Q9UM73); test: In vitro ALK kinase-inhibiting activity (SA-XL665/tyrosine kinase antibody, 665 nm/615 nm read); format: biochemical; conditions: Experimental Example 1; 25° C., 30 min enzymatic reaction; read-out: ALK enzyme-inhibiting activity IC50
Method: Preparation of ALK Kinase Buffer:
(§13) The resultant mixture was mixed homogeneously, for later usage.
as §13
Preparation of a stock solution of compound at a concentration of 1 mM: a suitable amount of compound (please see the following table for sample weight) was weighed, and dissolved by adding a suitable amount of DMSO. The resultant mixture was mixed homogeneously, for later usage.
Each of the 1 mM stock solutions was diluted with DMSO to a 200 μM solution, which was used as initial solution. Each of said initial solutions was 3-fold diluted with DMSO to prepare a series of solutions of different concentrations, and then the solution of each concentration was diluted with the ALK kinase buffer by 80 folds to prepare a 2.5×test compound solution.
Preparation of Other Reagents:
5×ALK kinase solution, 5×substrate solution, and 5×ATP solution, were prepared by using the ALK kinase buffer, for later usage.
1) 4 μL 2.5× test compound solution and 2 μL 5×ALK kinase solution were added to the corresponding wells in a 384-well plate, respectively, and incubated at 25° C. for 10 min.
2) To the corresponding wells, 2 μL 5× substrate solution and 2 μL 5×ATP solution were further added to start the enzymatic reaction, and incubation was performed at 25° C. for 30 min.
Detection buffer was used to prepare SA-XL665 at a desired concentration, which was then mixed homogeneously with the same volume of tyrosine kinase antibody. To the corresponding wells, 10 μL said antibody solution was added, and the reaction was stopped. Incubation was performed at 25° C. for 1 h.
IC50: Inhibition rate (%)=(maximal value-sample value)/(maximal value-minimal value)×100, wherein Graph prism software was used in curve fitting to get IC50 value.
Maximal value: positive control without addition of compound; minimal value: negative control without addition of enzyme.

Pharmacokinetics in rat = format: in vivo; conditions: plasma, iv 2 mg/kg, po 5 mg/kg
Method: Experimental Example 6 Assay on Pharmacokinetics of the Compounds Provided in Examples of the Invention in Rat
Test compounds: Compound 4, lab-made, the chemical name and preparation method of which can be found in the preparation example.
Internal standard: Alectinib, lab-made (prepared by reference to the method in Patent CN102459172A).
0.1% Tween 80+2% HPC: HPC (hydroxypropyl cellulose) (20 g) was weighed, and was added slowly to purified water (1000 mL) under stirring; Tween 80 (1 mL) was then added, and the resultant mixture was stirred until a clear solution was obtained, i.e. a blank solvent of 0.1% Tween 80+2% HPC.
A suitable amount of test compound (please see the following table for sample weight) was weighed, and said prepared solvent was added. The resultant mixture was placed in a tissue grinder, and was dispersed homogeneously at a rotation speed of 1000 r/min to get a solution for intragastric administration. […]
Protein precipitation method: to 30 μL plasma, 200 μL internal standard (acetonitrile solution containing 50 ng/mL Alectinib) was added; the resultant mixture was vortexed at 1000 r/min for 10 min, and then centrifuged at 4000 r/min for 20 min; to 100 μL supernatant, 100 μL water was added; the resultant mixture was mixed homogeneously under vortexing and analyzed by LC-MS/MS.

ALK kinase [2] = target: T1, ALK kinase; test: In vitro ALK kinase inhibitory activity by Caliper Mobility Shift assay; format: biochemical; conditions: Experimental Example 2, 28° C., 1 h, read-out: ALK enzyme-inhibiting activity IC50
Excerpt: Experimental method: Measurement of ALK kinase inhibitory activity by Caliper Mobility Shift assay.
1. Preparation of 1-Fold Kinase Buffer
2. Preparation of Stop Solution
3. Preparation of 5-Fold Test Compound Solutions:
Preparation of a DMSO stock solution of test compound: a suitable amount of compound (please see the following table for sample weight) was weighed, and dissolved by adding a suitable amount of DMSO. The resultant mixture was mixed homogeneously, for later usage.
Said DMSO stock solution of test compound was diluted with DMSO to a solution at a concentration of 50 μM, which was used as initial solution. Said initial solution was subjected to 4-fold gradient dilution with DMSO, and the solution at each concentration was 10-fold diluted with 1-fold kinase buffer to prepare a 5-fold test compound solution.
4. Preparation of Other Reagents:
2.5×ALK kinase solution and 2.5× polypeptide solution were prepared by using the 1-fold kinase buffer, for later usage.
1) 5 μL 5-fold test compound solution and 10 μL 2.5-fold kinase solution were added to the corresponding wells in a 384-well plate, and incubated at room temperature for 10 min.
The enzymatic reaction was started, and the incubation was performed at 28° C. for 1 h.
To the corresponding wells, 25 μL stop solution was added to stop the reaction. Data was read by Caliper device, and the inhibition rate was calculated by the data,
Inhibition rate (%)=(maximal value-sample value)/(maximal value-minimal value)×100, wherein XLFIT software was used in curve fitting to get IC50 value.
Maximal value: positive control without addition of test compound; minimal value: negative control without addition of enzyme.

T1 sequence (Q9UM73 19-1620): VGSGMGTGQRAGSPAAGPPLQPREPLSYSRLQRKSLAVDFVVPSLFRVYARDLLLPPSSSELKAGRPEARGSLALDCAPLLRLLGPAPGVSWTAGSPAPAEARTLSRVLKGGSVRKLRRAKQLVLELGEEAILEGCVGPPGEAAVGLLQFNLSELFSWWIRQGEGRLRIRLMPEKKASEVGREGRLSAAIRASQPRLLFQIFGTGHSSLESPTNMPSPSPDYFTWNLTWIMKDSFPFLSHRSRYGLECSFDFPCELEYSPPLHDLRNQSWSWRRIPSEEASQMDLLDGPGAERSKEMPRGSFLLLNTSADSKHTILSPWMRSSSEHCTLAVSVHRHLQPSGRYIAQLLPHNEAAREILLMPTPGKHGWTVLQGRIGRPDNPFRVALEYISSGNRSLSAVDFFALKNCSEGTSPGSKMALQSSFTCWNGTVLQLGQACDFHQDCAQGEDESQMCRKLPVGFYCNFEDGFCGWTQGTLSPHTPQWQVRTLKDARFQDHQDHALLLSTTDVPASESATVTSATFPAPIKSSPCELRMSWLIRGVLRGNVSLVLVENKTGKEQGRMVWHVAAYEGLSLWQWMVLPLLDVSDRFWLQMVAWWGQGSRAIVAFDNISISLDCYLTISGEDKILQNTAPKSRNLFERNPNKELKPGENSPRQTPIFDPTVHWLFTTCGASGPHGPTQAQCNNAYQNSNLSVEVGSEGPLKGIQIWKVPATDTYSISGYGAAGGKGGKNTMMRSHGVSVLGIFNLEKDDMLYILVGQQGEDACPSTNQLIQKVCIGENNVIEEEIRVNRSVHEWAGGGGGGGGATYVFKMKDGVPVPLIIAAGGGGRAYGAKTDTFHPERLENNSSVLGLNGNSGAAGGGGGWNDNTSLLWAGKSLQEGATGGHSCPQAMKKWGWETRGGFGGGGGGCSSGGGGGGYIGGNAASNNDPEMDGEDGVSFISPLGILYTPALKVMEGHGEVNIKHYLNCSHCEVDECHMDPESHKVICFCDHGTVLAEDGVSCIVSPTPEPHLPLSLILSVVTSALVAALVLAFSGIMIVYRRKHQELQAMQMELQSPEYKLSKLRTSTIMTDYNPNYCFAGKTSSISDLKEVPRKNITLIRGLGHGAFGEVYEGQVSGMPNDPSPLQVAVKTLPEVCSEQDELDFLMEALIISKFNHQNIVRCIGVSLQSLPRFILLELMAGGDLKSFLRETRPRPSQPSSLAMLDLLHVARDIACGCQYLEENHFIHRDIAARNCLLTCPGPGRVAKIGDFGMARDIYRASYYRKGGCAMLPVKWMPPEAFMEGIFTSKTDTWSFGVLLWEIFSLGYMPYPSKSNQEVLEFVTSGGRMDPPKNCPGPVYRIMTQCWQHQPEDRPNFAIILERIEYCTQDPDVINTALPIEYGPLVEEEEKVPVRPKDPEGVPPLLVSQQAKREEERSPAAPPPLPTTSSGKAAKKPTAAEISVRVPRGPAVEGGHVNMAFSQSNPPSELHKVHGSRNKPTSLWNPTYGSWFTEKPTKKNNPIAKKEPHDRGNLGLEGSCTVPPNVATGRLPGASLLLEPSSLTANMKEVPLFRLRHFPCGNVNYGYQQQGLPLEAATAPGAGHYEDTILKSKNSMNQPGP

| SMILES | IC50 (ALK kinase [1]) | IC50 (NCI-H3122; NCI-H3122, 72 h, MTS) | IC50 (Karpas-299; KARPAS-299, 72 h, MTS) | IC50 (NCI-H2228; NCI-H2228, 96 h, CTG) | bioavailability (Pharmacokinetics in rat) | IC50 (ALK kinase [2]) | IC50 (NCI-H3122; NCI-H3122, 72 h) | IC50 (Karpas-299; KARPAS-299, 72 h) | IC50 (NCI-H2228; NCI-H2228, 96 h) |
| --- | --- | --- | --- | --- | --- | --- | --- | --- | --- |
| Cc1cc(Nc2ncc(Cl)c(Nc3ccccc3S(=O)(=O)C(C)C)n2)c(OC(C)C)cc1C1CCNCC1 [Ceritinib, reference compound] | – | – | – | – | – | – | 138 nM | 30 nM | 48.1 nM |
| Cc1cc(Nc2ncc(Cl)c(Nc3ccccc3S(=O)(=O)N(C)C)n2)c2c(c1C1CCNCC1)OCO2 [Compound 2, 2-((5-chloro-2-((6-methyl-7-(piperidin-4-yl)benzol[d][1,3]dioxol-4-yl)amino)pyrimidin-4-yl)amino)-N,N-dimethylbenzenesulfonamide] | 1.7 nM | 4.18 nM | 7.66 nM | 5.47 nM | – | – | – | – | – |
| Cc1cc(Nc2ncc(Cl)c(Nc3ccccc3S(=O)(=O)N(C)C)n2)c2c(c1C1CCNCC1)OCCO2 [Compound 3, 2-((5-chloro-2-((7-methyl-8-(piperidin-4-yl)-2,3-dihydrobenzo[b][1,4]dioxin-5-yl)amino)pyrimidin-4-yl)amino)-N,N-dimethylbenzenesulfonamide] | 0.6 nM | 43.2 nM | 0.164 nM | 1.72 nM | – | – | – | – | – |

More lines, in order of falling IC50 (NCI-H3122; NCI-H3122, 72 h, MTS), values ahead:

| IC50 (ALK kinase [1]) | IC50 (NCI-H3122; NCI-H3122, 72 h, MTS) | IC50 (Karpas-299; KARPAS-299, 72 h, MTS) | IC50 (NCI-H2228; NCI-H2228, 96 h, CTG) | bioavailability (Pharmacokinetics in rat) | IC50 (ALK kinase [2]) | SMILES | IC50 (NCI-H3122; NCI-H3122, 72 h) | IC50 (Karpas-299; KARPAS-299, 72 h) | IC50 (NCI-H2228; NCI-H2228, 96 h) |
| --- | --- | --- | --- | --- | --- | --- | --- | --- | --- |
| 0.9 nM | 130 nM | 0.71 nM | 15.1 nM | 30 to 50% | – | Cc1cc(Nc2ncc(Cl)c(Nc3ccccc3S(=O)(=O)C(C)C)n2)c2c(c1C1CCNCC1)OCCO2 [Compound 4, 5-chloro-N^4-(2-(isopropylsulfonyl)phenyl)-N^2-(7-methyl-8-(piperidin-4-yl)-2,3-dihydrobenzo[b][1,4]dioxin-5-yl)pyrimidine-2,4-diamine] | – | – | – |
| – | 61.7 nM | 9.92 nM | – | – | 0.45 nM | Cc1cc(Nc2ncc(Cl)c(Nc3ccccc3S(=O)(=O)C(C)C)n2)c2c(c1C1CNC1)OCCO2 [Compound 6, N^2-(8-(azetidin-3-yl)-7-methyl-2,3-dihydrobenzo[b][1,4]dioxin-5-yl)-5-chloro-N^4-(2-(isopropylsulfonyl)phenyl)pyrimidine-2,4-diamine] | – | – | – |
| – | 25.1 nM | 5.36 nM | 7.41 nM | – | 0.36 nM | Cc1cc(Nc2ncc(Cl)c(Nc3ccccc3S(=O)(=O)C(C)C)n2)c2c(c1C1CCNC1)OCCO2 (stereo not drawn) [Compound 5, 5-chloro-N^4-(2-(isopropylsulfonyl)phenyl)-N^2-(7-methyl-8-(pyrrolidin-3-yl)-2,3-dihydrobenzo[b][1,4]dioxin-5-yl)pyrimidine-2,4-diamine] | – | – | – |
| – | 16.1 nM | 5.18 nM | – | – | 0.54 nM | Cc1cc(Nc2ncc(Cl)c(Nc3ccccc3S(=O)(=O)C(C)C)n2)c2c(c1C1=CCNCC1)CCCO2 [Compound 8, 5-chloro-N^4-(2-(isopropylsulfonyl)phenyl)-N^2-(6-methyl-5-(1,2,3,6-tetrahydropyridine-4-yl)chroman-8-yl)pyrimidine-2,4-diamine] | – | – | – |
| 0.2 nM | 10.9 nM | 0.7 nM | 3.21 nM | – | – | Cc1cc(Nc2ncc(Cl)c(Nc3ccccc3S(=O)(=O)C(C)C)n2)c2c(c1C1CCNCC1)OCO2 [Compound 1, 5-chloro-N^4-(2-(isopropylsulfonyl)phenyl)-N^2-(6-methyl-7-(piperidin-4-yl)benzo[d][1,3]dioxol-4-yl)pyrimidine-2,4-diamine] | – | – | – |
